Source: PMC11546339, “Conformational Plasticity Enhances the Brain Penetration of a Metabolically Stable, Dual-Functional Opioid-Peptide CycloAnt” (International Journal of Molecular Sciences, 2024)
Where a SMILES comes first, the peptide text is derived from it. Bridges are numbered along the chain shown (N, C = ends). [ ]: non-standard residue; d: D form. 2Abz = Nc1ccccc1C(=O)O; Dap = NC[C@H](N)C(=O)O

Test: LC-MS/MS search for metabolites in mouse plasma after i.p. administration
Assay type: in vivo
Conditions: mouse plasma 15 min after 10 mg/kg i.p.; from m/z intensity
Procedure: To verify if CycloAnt could be metabolized in vivo, we looked for the possible metabolites (Scheme S1) in a blood sample collected from mice 15 min after i.p. administration of CycloAnt at a dose of 10 mg/kg. The proteins in the mouse plasma were precipitated by ice-cold acetonitrile containing internal standard. Following centrifugation, the supernatant was collected, and analyzed by LC-MS/MS. A total ion current (TIC) scan was conducted for the mass-to-charge ratio (m/z) in the range of 300–1500 for all ions, followed by the targeted narrow range scans. The scans in the range of 650–690 and 325–346 are aimed at detecting the potential [M + 1]^+ and [M + 2]^2+ ions from the Phase I metabolites, the enzymatically cleaved peptides, and intact CycloAnt, respectively (Figure S1 and Figure 2); and the scans in the range of 843–852 and 422–428 are for detecting the potential [M + 1]^+ and [M + 2]^2+ ions from the Phase II glucuronidation, respectively (Figure S3). The [M + 1]^+ and [M + 2]^2+ ions were then extracted from the narrow range scans for the potential enzymatically cleaved products (Figure S1), the Phase I metabolites (Figure S2), and the Phase II UGT metabolites (Figure S3). The relative abundance of the tallest peak was assigned as 100. […]

For `C[C@@H](O)[C@@H]1NC(=O)[C@H](CNC(=O)c2ccccc2N)NC(=O)[C@H](NC(=O)[C@@H](N)Cc2ccc(O)cc2)CCCCNC(=O)CNC1=O` [CycloAnt] (H-Y[dK][Dap](2Abz)TG; lactam 2-C), the “concentration of any metabolites relative to CycloAnt in plasma (fold lower)” value was 10^3- to-10^4 fold.
